Data set [1] concerns HeLa. Put plainly: Cytotoxicity against human HeLa cells assessed as inhibition of cell proliferation in presence of 100 uM of DIBAC. It is filed as functional, cell-based.
The subject of data set [2] is HeLa. Briefly: Cytotoxicity against human HeLa cells assessed as inhibition of cell proliferation. It counts as functional, cell-based.
Data set [3] deals with HepG2. Briefly: Cytotoxicity against human HepG2 cells assessed as inhibition of cell proliferation. It is filed as functional, cell-based.
Data set [4] concerns HepG2. Briefly: Cytotoxicity against human HepG2 cells assessed as inhibition of cell proliferation in presence of 100 uM of DIBAC. It is filed as functional, cell-based.
Data set [5] can be described thus: Drug uptake in human HeLa cells assessed as increase in colocalization by measuring fluorescence intensity at 5 uM incubated for 30 mins. It counts as ADME, cell-based. To be noted: 0.5 h.
Data set [6] can be described thus: Drug uptake in mitochondria of human HeLa cells incubated for 30 mins. It counts as ADME. The settings on record: 0.5 h.

Where only a bound is given, the exact number is not on record here.

The IC50 is the concentration at which inhibition is half-maximal. In the case of `CCOC(=O)c1ccc(-[n+]2cc([N-]S(=O)(=O)c3ccc(-n4nc(C(F)(F)F)cc4-c4ccc(C)cc4)cc3)on2)cc1`, the IC50 in the data set with HeLa [1] is 85.3 µM; in the data set on HeLa [2] it was more than 100 µM; with HepG2 [3] it was more than 100 µM; in the data set on HepG2 [4], 66.2 µM. For the molecule `O=C(NCCCNC(=O)c1ccc(-[n+]2cc([O-])on2)cc1)OCC1C[C@@H]2C=C[C@H]1C2` (some centres undefined), in data set [5], the Drug uptake entry is “Active”.

As for `CC1=CC(C)=[N+]2C1=Cc1ccc(CCC(=O)NCCCNC(=O)c3ccc(-[n+]4cc(O)on4)cc3)n1[B-]2(F)F`, the Drug uptake entry in data set [6] was “Active”. For `Cc1ccc(-c2cc(C(F)(F)F)nn2-c2ccc(S(N)(=O)=O)cc2)cc1` [CELECOXIB], the IC50 in the data set on HeLa [2] stood at 32.7 µM; in the data set with HepG2 [3], 43.6 µM. With `CC1=CC(C)=[N+]2C1=Cc1ccc(CCC(=O)NCCCNC(=O)c3ccc(-[n+]4noc(O)c4-c4ccccc4)cc3)n1[B-]2(F)F`, the Drug uptake entry in data set [6] is recorded as “Not Active”.
